Experimental data: US11998008B2, “Pesticides and methods of controlling pests” (The State of Israel, Ministry of Agriculture & Rural …, priority 2017, dated 2024)
Like-named read-outs stand apart in the source and are kept apart here.

How the values were obtained:
A. alternata = assay: Fungicidal activity assay on PDA in sealed Petri dish (growth inhibition and mortality); assay type: cell-based, Alternaria alternata; conditions: for MFC: Alternaria alternata, read-out: M - Mortality, minimal concentration that killed the fungus; for MFC / M - Mortality, minimal concentration that killed the fungus: NA + number = still viable in the highest concentration tested (given as >); for I - Inhibition class: 2 days; for I - Inhibition, minimal concentration that inhibited the growth: concentration to which the class above belongs
Experimental: (§1) In exemplary procedures, the fungicidial activity of the compounds listed in Table 2 were examined by activity assays as follow: Petri dishes, 90 mm in diameter, with air volume of 80 mL, contained 10-12 mL of growth medium comprising potato dextrose agar (PDA) (Acumedia, Lansing, Michigan, USA) amended with tetracycline at 12 μg/mL. Each compound was placed on a disconnected cover from an Eppendorf tube that was located in the middle of the Petri dish and a hyphae-containing plug of each test fungus was added to the culture plate. In exemplary procedures, the tested compounds trans-2-heptenal, trans-2-octenal were tested in comparison with octanal, trans-2-octen-1-ol, methyl trans-2-octenoate, trans-3-octen-2-one and 3-pentenenitrile. In addition, cyclic ketones as 2-cyclopenten-1-one, 2-cyclohexen-1-one and α-tetralone were also examined. Then, the culture plate was sealed with parafilm and incubated at room-temperature for 2 days, after which the growth of the test fungi in those dishes was compared with those in the test compound-free control dishes. At the end of the assay, the viability of each test fungus was evaluated by transferring inoculum plugs to fresh PDA plates and observing the growth that developed within the next 2 days. The test fungi used in this study included but were not limited to Alternaria alternata, Botrytis cinerea, Sclerotinia rolfsii, Penicillium digitatum, Fusarium oxysporum f. sp. radicis-cucumerinum and Rhizoctonia solani.

B. cinerea = assay: as above; assay type: cell-based, Botrytis cinerea; conditions: for MFC: Botrytis cinerea, read-out: M - Mortality, minimal concentration that killed the fungus; for MFC / M - Mortality, minimal concentration that killed the fungus: NA + number = still viable in the highest concentration tested (given as >); for I - Inhibition class: 2 days; for I - Inhibition, minimal concentration that inhibited the growth: concentration to which the class above belongs
Experimental: as §1

S. rolfsii = assay: as above; assay type: cell-based, Sclerotinia rolfsii; conditions: for MFC: Agroathelia rolfsii, read-out: M - Mortality, minimal concentration that killed the fungus; for I - Inhibition class: 2 days; for I - Inhibition, minimal concentration that inhibited the growth: concentration to which the class above belongs
Experimental: as §1, with “Each” for “In exemplary procedures, the fungicidial activity of the compounds listed in Table 2 were examined by activity assays as follow: Petri dishes, 90 mm in diameter, with air volume of 80 mL, contained 10-12 mL of growth medium comprising potato dextrose agar (PDA) (Acumedia, Lansing, Michigan, USA) amended with tetracycline at 12 μg/mL. Each”

P. digitatum = assay: as above; assay type: cell-based, Penicillium digitatum; conditions: for MFC: Penicillium digitatum, read-out: M - Mortality, minimal concentration that killed the fungus; for MFC / M - Mortality, minimal concentration that killed the fungus: NA + number = still viable in the highest concentration tested (given as >); for I - Inhibition class: 2 days; for I - Inhibition, minimal concentration that inhibited the growth: concentration to which the class above belongs
Experimental: as §1

[1] = system: F. oxysporum f. sp. radicis-cucumerium; assay: as above; assay type: cell-based, Fusarium oxysporum f. sp. radicis-cucumerinum; conditions: for MFC: Fusarium oxysporum, read-out: M - Mortality, minimal concentration that killed the fungus
Experimental: as §1, with “Each” for “In exemplary procedures, the fungicidial activity of the compounds listed in Table 2 were examined by activity assays as follow: Petri dishes, 90 mm in diameter, with air volume of 80 mL, contained 10-12 mL of growth medium comprising potato dextrose agar (PDA) (Acumedia, Lansing, Michigan, USA) amended with tetracycline at 12 μg/mL. Each”

R. solani = assay: microbe, parasite or virus in culture; assay type: cell-based; conditions: R. solani; for MFC: Rhizoctonia solani, read-out: M - Mortality, minimal concentration that killed the fungus
Experimental: as §1, with “Each” for “In exemplary procedures, the fungicidial activity of the compounds listed in Table 2 were examined by activity assays as follow: Petri dishes, 90 mm in diameter, with air volume of 80 mL, contained 10-12 mL of growth medium comprising potato dextrose agar (PDA) (Acumedia, Lansing, Michigan, USA) amended with tetracycline at 12 μg/mL. Each”

[2] = system: Meloidogyne javanica second stage juveniles (J2s); assay: Nematocidal activity: viability of J2 nematodes after 2 days exposure to the compound in a sealed box; assay type: in vivo; conditions: for Activity: the most effective concentration: concentration to which the class of the same cell belongs
Text: In exemplary procedures, the sedentary root-knot nematode from the genus Meloidogyne javanica second stage juveniles (J2s) was propagated on greenhouse-grown nematode-susceptible tomato Lycopersicon esculentum cv. ‘Avigail 870’ (Hazera, Shikmim, Israel), and nematode eggs were bulk-extracted from the roots with 0.05% (v/v) sodium hypochlorite (NaOCl) followed by sucrose flotation and successive sievings through nylon filters of 300, 120, 60, and 30 μm mesh sizes (AD Sinun Technologies, Petach Tikvah, Israel). For hatching J2, extracted eggs were placed on 30-μm sieves (AD Sinun Technologies) in 0.01 M MES (2-(N-morpholino) ethanesulfonic acid hydrate) pH 6.5 buffer under aseptic conditions in darkness for 5 days, and hatching J2s were collected for further experiments.
Seven vials, each containing 300 J2 nematodes with 0.5 mL of 0.01 M 2-(N-morpholino)ethanesulfonic acid (MES) buffer, were exposed to cyclic ketone compounds in order to examine their nematocidal activity and reduction in viability. In addition, a humid environment in a sealed 1 L box was maintained by addition 5 ml of distilled H2O to a 50-mm Petri plate. The box was sealed after compound addition into each 50-mm Petri plate together with 5-250 mg of perlite particles and incubated for 2 days in the dark at 25±1° C. C5 and C6 saturated and α,β-unsaturated cyclic ketones were tested for their nematocidal activity. The J2 nematodes viability was examined following exposure to the cyclic ketone compounds, by a straightforward small-scale nematode extraction method, based on the traditional Baermann funnel method. Briefly, all nematode suspensions were loaded onto 30-μm (AD Sinun Technologies) filters (1.0-1.5 cm height, 1.1-2.0 cm^3 internal area), and the nematodes were washed twice with 300 μL of 0.01 M MES buffer in order to remove any residues. Then, filters holding nematodes were placed into 15 mL Falcon centrifuge tubes, each containing 900 μL of 0.01 M of MES buffer. These filters allow active passage of only living J2s while paralyzed or dead nematodes remain on top of the filter. The whole apparatus including the filter holding the nematodes and the Falcon tubes were placed in the dark for 3 h at 25±1° C. Then, the filters were removed and the viable nematodes, which were able to actively cross the filter toward the 0.01 M of MES buffer, were collected from the Falcon tube and counted using a Nematode Counting Slide (Chalex LLC, Portland, OR, USA) and a SV11 stereomicroscope (Zeiss, Jena, Germany).
Data were analyzed by the JMP 12 software package (SAS Inc., Cary, NC, USA). Mean numbers of viable J2s under various conditions were subjected to one-way analysis of variance (ANOVA), followed by the Tukey-Kramer multiple comparison test, with significance set at P<0.05.

test fungi = assay: Fungicidal activity assay on PDA, summaries over the test fungi; assay type: cell-based; conditions: for fungicidal activity in words: comparison within the series
Experimental: as §1

[3] = S. rolfsii, NA + number = still viable in the highest concentration tested (given as >)
[4] = NA + number = still viable in the highest concentration tested (given as >)
[5] = concentration to which the class above belongs

Compound | MFC (A. alternata) [µg/mL] | MFC (B. cinerea) [µg/mL] | MFC (S. rolfsii; [3]) [µg/mL] | MFC (P. digitatum) [µg/mL] | MFC [1, 4] [µg/mL] | MFC (R. solani; [4]) [µg/mL] | also measured
CC(C)CC(=O)CC(C)C [2,6-dimethyl-4-heptanone] | > 2500 | > 2500 | 2500 | > 2500 | – | – | –
CC=CCC#N [3-pentenenitrile] | – | – | > 25 | – | > 25 | > 25 | –
CCCC(=O)CCC [4-heptanone] | 2500 | 1250 | 2500 | > 2500 | – | – | –
CC(C)=CCCC(C)=CC=O [Citral] | 25 | 25 | 25 | > 125 | – | – | –
O=C1CCCCC1 [Cyclohexanone] | – | – | 500 | – | > 250 | > 250 | nematocidal activity in words ([2]; comparison within the series): nematocidal effects at substantially higher concentrations
CCCCCCCCCC=O [Decanal] | – | – | > 25 | – | > 25 | > 25 | –
CCOC(=O)C=Cc1ccccc1 [Ethyl cinnamate] | > 1250 | > 1250 | > 1250 | > 1250 | – | – | –
CC(C)=CCCC(C)=CCCC(C)=CCO [Farnesol] | > 1250 | > 1250 | > 1250 | > 1250 | – | – | –
CCCCCCCCCCCC=O [Lauric aldehyde] | – | – | – | – | – | – | I - Inhibition class (S. rolfsii; S. rolfsii): NI (<50% growth inhibition); M - Mortality, minimal concentration that killed the fungus (S. rolfsii; [3]): > 25 ppm; I - Inhibition, minimal concentration that inhibited the growth (S. rolfsii; S. rolfsii): 25 ppm; I - Inhibition class ([1]; 2 days): NI (<50% growth inhibition); M - Mortality, minimal concentration that killed the fungus [1, 4]: > 25 ppm; I - Inhibition, minimal concentration that inhibited the growth [1, 5]: 25 ppm; I - Inhibition class (R. solani; 2 days): NI (<50% growth inhibition); M - Mortality, minimal concentration that killed the fungus (R. solani; [4]): > 25 ppm; I - Inhibition, minimal concentration that inhibited the growth (R. solani; [5]): 25 ppm; fungicidal activity in words (test fungi): lower activity
CCCCC/C=C/C(=O)OC [Methyl trans-2-octenoate] | 125 | 125 | 125 | 125 | – | – | concentration that completely inhibited the fungi growth (test fungi; dependent on the fungus tested): 125 ppm
CCCCCCCCC=O [Nonanal] | – | – | 25 | – | > 25 | > 25 | –
CCCCCCCC=O [Octanal] | – | – | > 25 | – | > 25 | 12.5 | fungicidal activity in words (test fungi): less fungicidal efficiency
COc1ccc(C=O)cc1 [p-Anisaldehyde] | – | – | – | – | – | – | MFC (S. rolfsii): > 1250 µg/mL
CCCCCCC/C=C/C=O [trans-2-decenal] | – | – | – | – | – | – | fungicidal activity in words (test fungi): lower activity
CCCC/C=C/C=O [trans-2-heptenal] | 12.5 | 125 | 6.25 | 12.5 | 12.5 | 12.5 | concentration that completely inhibited the fungi growth (test fungi; dependent on the fungus tested): 6.25-25 ppm; concentrations at which fungi were not viable (test fungi; dependent on the fungus tested): 6.25-125 ppm
CCC/C=C/C=O [trans-2-hexen-1-al] | – | – | 12.5 | – | 25 | 12.5 | –
CCCCCC/C=C/C=O [trans-2-nonenal] | – | – | > 25 | – | 6.25 | > 25 | –
CCCCC/C=C/CO [trans-2-octen-1-ol] | 125 | 500 | 80 | 50 | – | – | concentration that completely inhibited the fungi growth (test fungi; dependent on the fungus tested): 50 ppm
CCCCC/C=C/C(=O)O [trans-2-octenoic acid] | > 125 | > 125 | > 125 | > 125 | – | – | –
CC/C=C/C=O [trans-2-pentenal] | 25 | 25 | 25 | 25 | 25 | 25 | –
CCCC/C=C/C(C)=O [trans-3-octen-2-one] | 50 | 50 | 50 | 50 | – | – | concentration that completely inhibited the fungi growth (test fungi; dependent on the fungus tested): 50 ppm
O=C/C=C/c1ccccc1 [trans-cinnamaldehyde] | – | – | > 1250 | – | – | – | –
R-(−)-Carvone | – | – | – | – | – | – | Activity: the most effective concentration [2]: 250 ppm; I - Inhibition class (A. alternata): SI (Strong inhibition - 100% of growth inhibition compared to control.); M - Mortality, minimal concentration that killed the fungus (A. alternata): > 1250 ppm; I - Inhibition, minimal concentration that inhibited the growth (A. alternata): 125 ppm; I - Inhibition class (B. cinerea): MI (Medium inhibition - 76-99% of growth inhibition); M - Mortality, minimal concentration that killed the fungus (B. cinerea): > 1250 ppm; I - Inhibition, minimal concentration that inhibited the growth (B. cinerea): 25 ppm; I - Inhibition class (S. rolfsii; S. rolfsii): MI (Medium inhibition - 76-99% of growth inhibition); M - Mortality, minimal concentration that killed the fungus (S. rolfsii; [3]): > 1250 ppm; I - Inhibition, minimal concentration that inhibited the growth (S. rolfsii; S. rolfsii): 125 ppm; I - Inhibition class (P. digitatum): MI (Medium inhibition - 76-99% of growth inhibition); M - Mortality, minimal concentration that killed the fungus (P. digitatum): > 1250 ppm; I - Inhibition, minimal concentration that inhibited the growth (P. digitatum): 625 ppm
trans-2-heptanol | – | – | – | – | – | – | Activity: reduction in J2s viability relative to non exposed control J2s (class) ([2]; at the concentration given, 2 days incubation): L (51-75% reduction in viability); Activity: the most effective concentration [2]: 500 ppm; I - Inhibition class (A. alternata): SI (Strong inhibition - 100% of growth inhibition compared to control.); M - Mortality, minimal concentration that killed the fungus (A. alternata): 500 ppm; I - Inhibition, minimal concentration that inhibited the growth (A. alternata): 125 ppm; I - Inhibition class (B. cinerea): SI (Strong inhibition - 100% of growth inhibition compared to control.); M - Mortality, minimal concentration that killed the fungus (B. cinerea): 500 ppm; I - Inhibition, minimal concentration that inhibited the growth (B. cinerea): 125 ppm; I - Inhibition class (S. rolfsii; S. rolfsii): SI (Strong inhibition - 100% of growth inhibition compared to control.); M - Mortality, minimal concentration that killed the fungus (S. rolfsii; [3]): 500 ppm; I - Inhibition, minimal concentration that inhibited the growth (S. rolfsii; S. rolfsii): 125 ppm; I - Inhibition class (P. digitatum): SI (Strong inhibition - 100% of growth inhibition compared to control.); M - Mortality, minimal concentration that killed the fungus (P. digitatum): 1250 ppm; I - Inhibition, minimal concentration that inhibited the growth (P. digitatum): 125 ppm
